Results: patent US9096624B2 (OSI Pharmaceuticals, LLC, priority 2009, dated 2015)

target: FAK (Homo sapiens, UniProt Q05397); experiment: biochemical
Sequence (Q05397 whole entry): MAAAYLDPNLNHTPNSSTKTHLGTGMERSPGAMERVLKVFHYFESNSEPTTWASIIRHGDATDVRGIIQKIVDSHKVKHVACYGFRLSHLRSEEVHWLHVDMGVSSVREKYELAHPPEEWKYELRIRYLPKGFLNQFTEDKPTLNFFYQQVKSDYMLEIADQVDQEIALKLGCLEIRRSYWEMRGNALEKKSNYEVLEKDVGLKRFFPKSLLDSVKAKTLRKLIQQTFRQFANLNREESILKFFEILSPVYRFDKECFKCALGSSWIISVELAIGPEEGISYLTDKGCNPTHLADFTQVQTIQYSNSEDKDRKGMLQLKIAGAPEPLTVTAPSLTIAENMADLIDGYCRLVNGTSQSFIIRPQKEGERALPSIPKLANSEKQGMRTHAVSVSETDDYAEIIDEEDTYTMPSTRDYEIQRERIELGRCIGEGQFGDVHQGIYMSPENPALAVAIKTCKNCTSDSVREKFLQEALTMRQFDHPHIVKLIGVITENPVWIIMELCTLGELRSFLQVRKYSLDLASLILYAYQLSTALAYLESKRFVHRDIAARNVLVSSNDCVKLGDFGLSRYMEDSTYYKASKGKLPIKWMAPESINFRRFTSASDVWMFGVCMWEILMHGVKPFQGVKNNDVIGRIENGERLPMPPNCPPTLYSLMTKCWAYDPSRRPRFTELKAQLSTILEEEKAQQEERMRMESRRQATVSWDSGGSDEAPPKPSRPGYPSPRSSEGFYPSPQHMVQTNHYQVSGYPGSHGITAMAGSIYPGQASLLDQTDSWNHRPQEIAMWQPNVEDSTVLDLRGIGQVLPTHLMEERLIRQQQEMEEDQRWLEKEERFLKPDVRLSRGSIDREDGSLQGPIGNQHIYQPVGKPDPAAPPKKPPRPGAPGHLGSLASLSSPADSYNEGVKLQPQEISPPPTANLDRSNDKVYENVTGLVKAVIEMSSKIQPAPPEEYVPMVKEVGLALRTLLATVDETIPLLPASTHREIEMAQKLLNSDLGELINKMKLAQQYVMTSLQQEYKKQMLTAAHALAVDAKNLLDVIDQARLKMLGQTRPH

SMILES | IC50
CCOP(=O)(Cc1ccc(Nc2ncc(C(F)(F)F)c(Nc3ccccc3C(=O)N3CCN(C)CC3)n2)cc1)OCC [Example 177, Diethyl (4-{[4-({2-[(4-methylpiperazin-1-yl)carbonyl]phenyl}amino)-5-(trifluoromethyl)pyrimidin-2-yl]amino}benzyl)phosphonate] | < 1000 nM
CCOP(=O)(Cc1ccc(Nc2ncc(C(F)(F)F)c(Nc3ccc(-c4cnn(CCO)c4)cc3C(=O)NC)n2)cc1)OCC [Example 145, Diethyl (4-{[4-({4-[1-(2-hydroxyethyl)-1H-pyrazol-4-yl]-2-(methylcarbamoyl)phenyl}amino)-5-(trifluoromethyl)pyrimidin-2-yl]amino}benzyl)phosphonate] | < 1000 nM
CCOP(=O)(Cc1ccc(Nc2ncc(C(F)(F)F)c(Nc3ccc([C@H]4CC[C@@H](C(=O)O)CC4)c4c3C(=O)N(C)C4)n2)c(OC)c1)OCC [Example 89, Cis-4-(7-{[2-({4-[(diethoxyphosphoryl)methyl]-2-methoxyphenyl}amino)-5-(trifluoromethyl)pyrimidin-4-yl]amino}-2-methyl-1-oxo-2,3-dihydro-1H-isoindol-4-yl)cyclohexanecarboxylic acid] | < 1000 nM
CCOP(=O)(Cc1ccc(Nc2ncc(C(F)(F)F)c(Nc3ccc(C#N)c4c3C(=O)N(C)C4)n2)cc1)OCC [Example 161, Diethyl [4-({4-[(7-cyano-2-methyl-3-oxo-2,3-dihydro-1H-isoindol-4-yl)amino]-5-(trifluoromethyl)pyrimidin-2-yl}amino)benzyl]phosphonate] | < 1000 nM
CCOP(=O)(Cc1ccc(Nc2ncc(C(F)(F)F)c(Nc3ccc([C@H]4CC[C@H](OP(=O)(O)O)CC4)c4c3C(=O)N(C)C4)n2)c(OC)c1)OCC [Example 228, Diethyl (3-methoxy-4-{[4-({2-methyl-3-oxo-7-[trans-4-(phosphonooxy)cyclohexyl]-2,3-dihydro-1H-isoindol-4-yl}amino)-5-(trifluoromethyl)pyrimidin-2-yl]amino}benzyl)phosphonate] | < 1000 nM
CCOP(=O)(Cc1ccc(Nc2ncc(C(F)(F)F)c(Nc3ccc(N4CCN(CC(=O)O)CC4)c4c3C(=O)N(C)C4)n2)c(OC)c1)OCC [Example 252, [4-(7-{[2-({4-[(Diethoxyphosphoryl)methyl]-2-methoxyphenyl}amino)-5-(trifluoromethyl)pyrimidin-4-yl]amino}-2-methyl-1-oxo-2,3-dihydro-1H-isoindol-4-yl)piperazin-1-yl]acetic acid] | < 1000 nM
CCOP(=O)(O)Cc1ccc(Nc2ncc(C(F)(F)F)c(Nc3ccc(N4CCN(C)CC4)c4c3C(=O)N(C)C4)n2)c(OC)c1 [Example 254, Ethyl hydrogen (3-methoxy-4-{[4-{[2-methyl-7-(4-methylpiperazin-1-yl)-3-oxo-2,3-dihydro-1H-isoindol-4-yl]amino}-5-(trifluoromethyl)pyrimidin-2-yl]amino}benzyl)phosphonate] | < 1000 nM
CCOc1ccc(Nc2nc(Nc3ccc(CP(=O)(OCC)OCC)cc3OC)ncc2C(F)(F)F)c2c1CN(C)C2=O [Example 210, Diethyl [4-({4-[(7-ethoxy-2-methyl-3-oxo-2,3-dihydro-1H-isoindol-4-yl)amino]-5-(trifluoromethyl)pyrimidin-2-yl}amino)-3-methoxybenzyl]phosphonate] | < 1000 nM
CCOP(=O)(Cc1ccc(Nc2ncc(C(F)(F)F)c(Nc3ccc(C(=O)OC)c4c3C(=O)N(C)C4)n2)cc1)OCC [Example 118, Methyl 7-{[2-({4-[(diethoxyphosphoryl)methyl]phenyl}amino)-5-(trifluoromethyl)pyrimidin-4-yl]amino}-2-methyl-1-oxo-2,3-dihydro-1H-isoindole-4-carboxylate] | < 1000 nM
CCOP(=O)(Cc1ccc(Nc2ncc(C(F)(F)F)c(Nc3ccccc3C(=O)N(C)C)n2)c(OC)c1)OCC [Example 112, Diethyl (4-{[4-{[2-(dimethylcarbamoyl)phenyl]amino}-5-(trifluoromethyl)pyrimidin-2-yl]amino}-3-methoxybenzyl)phosphonate] | < 1000 nM
